From PubChem BioAssay (NCI)
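Values below derive from 48-hour exposures of cells grown in 96-well plates, with endpoints linearly interpolated between the two concentrations bracketing the appropriate inhibition level. At the GI50, growth is halved. TGI: total growth inhibition.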

Tests used:
Assay in all cases: growth of human tumour cells (NCI), 48 h
SF-295 CNS = system: SF-295 CNS
SN12C renal = system: SN12C renal
MDA-MB-231 breast = system: MDA-MB-231 breast
786-0 renal = system: 786-0 renal
OVCAR-3 ovarian = system: OVCAR-3 ovarian
SK-MEL-28 melanoma = system: SK-MEL-28 melanoma
K-562 leukemia = system: K-562 leukemia
NCI-H226 lung = system: NCI-H226 lung
MDA-MB-435 = system: MDA-MB-435
RXF 393 renal = system: RXF 393 renal
A549 NSCLC = system: A549 NSCLC
SK-MEL-5 melanoma = system: SK-MEL-5 melanoma
NCI/ADR-RES ovarian = system: NCI/ADR-RES ovarian
MOLT-4 leukemia = system: MOLT-4 leukemia
SK-MEL-2 melanoma = system: SK-MEL-2 melanoma
HOP-92 NSCLC = system: HOP-92 NSCLC
RPMI-8226 leukemia = system: RPMI-8226 leukemia
SF-539 CNS = system: SF-539 CNS
UACC-62 melanoma = system: UACC-62 melanoma
U251 CNS = system: U251 CNS
HS 578T breast = system: HS 578T breast
HCT-15 colon = system: HCT-15 colon
HOP-62 NSCLC = system: HOP-62 NSCLC
OVCAR-8 ovarian = system: OVCAR-8 ovarian
NCI-H460 lung = system: NCI-H460 lung
KM12 colon = system: KM12 colon
MALME-3M melanoma = system: MALME-3M melanoma
ACHN renal = system: ACHN renal
HCC-2998 colon = system: HCC-2998 colon
SW-620 colon = system: SW-620 colon
CCRF-CEM leukemia = system: CCRF-CEM leukemia
COLO 205 colon = system: COLO 205 colon
OVCAR-5 ovarian = system: OVCAR-5 ovarian
IGROV1 ovarian = system: IGROV1 ovarian
SK-OV-3 ovarian = system: SK-OV-3 ovarian
UO-31 renal = system: UO-31 renal
LOX IMVI melanoma = system: LOX IMVI melanoma
T-47D breast = system: T-47D breast
BT-549 breast = system: BT-549 breast
NCI-H23 lung = system: NCI-H23 lung
EKVX NSCLC = system: EKVX NSCLC
SNB-19 CNS = system: SNB-19 CNS
UACC-257 melanoma = system: UACC-257 melanoma
NCI-H522 lung = system: NCI-H522 lung
DU-145 prostate = system: DU-145 prostate
HCT-116 colon = system: HCT-116 colon
TK-10 renal = system: TK-10 renal
HT29 colon = system: HT29 colon
MCF7 breast = system: MCF7 breast
PC-3 prostate = system: PC-3 prostate
CAKI-1 renal = system: CAKI-1 renal
OVCAR-4 ovarian = system: OVCAR-4 ovarian
SF-268 CNS = system: SF-268 CNS

## O=C(CN(/C=C/C(=O)C(F)(F)F)c1ccc(Cl)cc1)c1ccc(F)cc1
SF-295 CNS
  GI50: 15.2 µM
  TGI: 34.1 µM
SN12C renal
  GI50: 16.1 µM
  TGI: 29.6 µM
MDA-MB-231 breast
  GI50: 14.2 µM
  TGI: 27.3 µM
786-0 renal
  GI50: 18 µM
  TGI: 42.3 µM
OVCAR-3 ovarian
  GI50: 13 µM
  TGI: 28.2 µM
SK-MEL-28 melanoma
  GI50: 16.5 µM
  TGI: 36.4 µM
K-562 leukemia
  GI50: 2.69 µM
  TGI: 22.2 µM
NCI-H226 lung
  GI50: 16.2 µM
  TGI: 30.7 µM
MDA-MB-435
  GI50: 12.1 µM
  TGI: 32.3 µM
RXF 393 renal
  GI50: 42.9 µM
  TGI: > 100 µM
A549 NSCLC
  GI50: 18.7 µM
  TGI: 81.1 µM
SK-MEL-5 melanoma
  GI50: 14.6 µM
  TGI: 27.8 µM
NCI/ADR-RES ovarian
  GI50: 14.4 µM
  TGI: 31.7 µM
MOLT-4 leukemia
  GI50: 5.59 µM
  TGI: 28.4 µM
SK-MEL-2 melanoma
  GI50: 8.75 µM
  TGI: 21.4 µM
HOP-92 NSCLC
  GI50: 18 µM
  TGI: 36.8 µM
RPMI-8226 leukemia
  GI50: 10.1 µM
  TGI: 51.3 µM
SF-539 CNS
  GI50: 18.9 µM
  TGI: 37.6 µM
UACC-62 melanoma
  GI50: 3.04 µM
  TGI: 15.2 µM
U251 CNS
  GI50: 11 µM
  TGI: 23 µM
HS 578T breast
  GI50: 4.95 µM
  TGI: 9.71 µM
HCT-15 colon
  GI50: 4.21 µM
  TGI: 21.4 µM
HOP-62 NSCLC
  GI50: 30.3 µM
  TGI: > 100 µM
OVCAR-8 ovarian
  GI50: 15.2 µM
  TGI: 38.4 µM
NCI-H460 lung
  GI50: 11.9 µM
  TGI: 26.3 µM
KM12 colon
  GI50: 5.61 µM
  TGI: 22.7 µM
MALME-3M melanoma
  GI50: 13.7 µM
  TGI: 28.9 µM
ACHN renal
  GI50: 4.17 µM
  TGI: 27 µM
HCC-2998 colon
  GI50: 12.9 µM
  TGI: 25.7 µM
SW-620 colon
  GI50: 15.1 µM
  TGI: 32.7 µM
CCRF-CEM leukemia
  GI50: 3.39 µM
  TGI: 19.8 µM
COLO 205 colon
  GI50: 17.2 µM
  TGI: 46.5 µM
OVCAR-5 ovarian
  GI50: 23.6 µM
  TGI: 53.5 µM
IGROV1 ovarian
  GI50: 12.5 µM
  TGI: 26.2 µM
SK-OV-3 ovarian
  GI50: 31.5 µM
  TGI: 91.1 µM
UO-31 renal
  GI50: 10.9 µM
  TGI: 23.3 µM
LOX IMVI melanoma
  GI50: 0.736 µM
  TGI: 16.9 µM
T-47D breast
  GI50: 14.9 µM
  TGI: > 100 µM
BT-549 breast
  GI50: 15.1 µM
  TGI: 35.3 µM
NCI-H23 lung
  GI50: 12.9 µM
  TGI: 26.2 µM
EKVX NSCLC
  GI50: 19.2 µM
  TGI: 43.6 µM
SNB-19 CNS
  GI50: 16.2 µM
  TGI: 34.2 µM
UACC-257 melanoma
  GI50: 12.8 µM
  TGI: 29.9 µM
NCI-H522 lung
  GI50: 3.6 µM
  TGI: 17.4 µM
DU-145 prostate
  GI50: 16.1 µM
  TGI: 40.8 µM
HCT-116 colon
  GI50: 14.5 µM
  TGI: 52.3 µM
TK-10 renal
  GI50: 18.9 µM
  TGI: 74 µM
HT29 colon
  GI50: 17.9 µM
  TGI: > 100 µM
MCF7 breast
  GI50: 14 µM
  TGI: 33.2 µM
PC-3 prostate
  GI50: 11.8 µM
  TGI: 25.9 µM
CAKI-1 renal
  GI50: 10.4 µM
  TGI: 32.7 µM
OVCAR-4 ovarian
  GI50: 15.5 µM
  TGI: 38 µM
SF-268 CNS
  GI50: 12.3 µM
  TGI: 30 µM
